Legend:
[1] = test system: antibodies in sera from SARS patients (sera 1a, 1b, 2, 6, 37, 62, London, SARS-yellow, SARS-green); format: binding, human; design: Binding of serum 6 to linear peptides of protein X1 of SARS-CoV Urbani / Binding of serum 37 to linear peptides of protein X1 of SARS-CoV Urbani / Binding of serum 6 to looped/cyclic peptide (PEPSCAN-ELISA) / Binding of serum 37 to looped/cyclic peptide (PEPSCAN-ELISA) / Binding of serum 37 to looped/cyclic peptides of protein X1 of SARS-CoV Urbani / Binding of serum 6 to linear peptides of protein X2 / Binding of serum 37 to linear peptides of protein X2 / Binding of serum 37 to looped/cyclic peptides of protein X2 of SARS-CoV Urbani / Binding of serum 6 to linear peptides of protein M of SARS-CoV Urbani / Binding of serum 37 to linear peptides of protein M of SARS-CoV Urbani / Binding of serum 6 to looped/cyclic peptides of protein M of SARS-CoV Urbani / Binding of serum 37 to looped/cyclic peptides of protein M of SARS-CoV Urbani / Binding of serum 6 to linear peptides of protein X3 of SARS-CoV Urbani / Binding of serum 37 to linear peptides of protein X3 of SARS-CoV Urbani / Binding of serum 37 to looped/cyclic peptides of protein X3 of SARS-CoV Urbani / Binding of serum 6 to linear peptides of protein X4 of SARS-CoV Urbani / Binding of serum 37 to linear peptides of protein X4 of SARS-CoV Urbani / Binding of serum 37 to looped/cyclic peptides of protein X4 of SARS-CoV Urbani / Binding of serum 6 to linear peptides of protein X5 of SARS-CoV Urbani / Binding of serum 37 to linear peptides of protein X5 of SARS-CoV Urbani / Binding of serum 37 to looped/cyclic peptides of protein X5 of SARS-CoV Urbani / Binding of serum 6 to linear peptides of protein N of SARS-CoV Urbani / Binding of serum 37 to linear peptides of protein N of SARS-CoV Urbani / Binding of serum 6 to linear peptide (PEPSCAN-ELISA) / Binding of serum 1a to looped/cyclic peptides of protein N of SARS-CoV Urbani / Binding of serum 1b to looped/cyclic peptides of protein N of SARS-CoV Urbani / Binding of serum 2 to looped/cyclic peptides of protein N of SARS-CoV Urbani / Binding of serum 6 to looped/cyclic peptides of protein N of SARS-CoV Urbani / Binding of serum 37 to looped/cyclic peptides of protein N of SARS-CoV Urbani / Binding of serum 62 to looped/cyclic peptides of protein N of SARS-CoV Urbani / Binding of serum London to looped/cyclic peptides of protein N of SARS-CoV Urbani / Binding of serum SARS-green to looped/cyclic peptides of protein N of SARS-CoV Urbani: unit not given here
[2] = test system: control sera (pooled serum of ten healthy LUMC hospital workers; commercial negative donor pooled serum from the Dutch bloodbank); format: binding, human; design: Binding of Control serum LUMC to linear peptides / Binding of Control serum Blood-bank to linear peptides / Binding of Control serum LUMC to looped peptides / Binding of Control Serum Blood-Bank to Looped peptides / Binding of Control serum LUMC to linear peptides of the protein M of SARS-CoV Urbani / Binding of Control serum Blood-bank to linear peptides of the protein M of SARS-CoV Urbani / Binding of Control serum LUMC to looped peptides of the protein M of SARS-CoV Urbani / Binding of Control Serum Blood-Bank to Looped peptides of the protein M of SARS-CoV Urbani: unit not given here
[3] = test system: rabbit serum obtained by immunizing a rabbit with the SARS-CoV strain Frankfurt 1; format: binding; design: Binding of a rabbit serum to linear peptides / Binding of a rabbit serum to looped peptides / Rabbit serum linear peptides / Rabbit serum looped peptides / Binding of a rabbit serum to linear peptides of protein N of SARS-CoV Urbani (Rabbit serum linear peptides) / Binding of a rabbit serum to looped/cyclic peptides of protein N of SARS-CoV Urbani (Rabbit serum looped peptides): unit not given here

TDTGIENATFFIFNK
Binding of serum 1a to linear peptides of protein X1 of SARS-CoV Urbani [1]: 0.7
Binding of serum 1a to looped/cyclic peptides of protein X1 of SARS-CoV Urbani [1]: 0.5
Binding of serum 1b to linear peptides of protein X1 of SARS-CoV Urbani [1]: 0.4
Binding of serum 1b to looped/cyclic peptides of protein X1 of SARS-CoV Urbani [1]: 0.5
Binding of serum 2 to linear peptides of protein X1 of SARS-CoV Urbani [1]: 0.5
Binding of serum 2 to looped/cyclic peptides of protein X1 of SARS-CoV Urbani [1]: 0.5
Binding of serum 6 to linear peptides of protein X1 of SARS-CoV Urbani [1]: 0.7
Binding of serum 6 to looped/cyclic peptides of protein X1 of SARS-CoV Urbani [1]: 0.5
Binding of serum 37 to linear peptides of protein X1 of SARS-CoV Urbani [1]: 0.6
Binding of serum 37 to looped/cyclic peptides of protein X1 of SARS-CoV Urbani [1]: 0.7
Binding of serum 62 to linear peptides of protein X1 of SARS-CoV Urbani [1]: 0.5
Binding of serum 62 to looped/cyclic peptides of protein X1 of SARS-CoV Urbani [1]: 0.7
Binding of serum London to linear peptides of protein X1 of SARS-CoV Urbani [1]: 0.3
Binding of serum London to looped/cyclic peptides of protein X1 of SARS-CoV Urbani [1]: 0.3
Binding of serum SARS-green to linear peptides of protein X1 of SARS-CoV Urbani [1]: 0.5
Binding of serum SARS-green to looped/cyclic peptides of protein X1 of SARS-CoV Urbani [1]: 0.4
Binding of serum SARS-yellow to linear peptides of protein X1 of SARS-CoV Urbani [1]: 0.0
Binding of serum SARS-yellow to looped/cyclic peptides of protein X1 of SARS-CoV Urbani [1]: 0.5
Binding of Control Serum Blood-Bank to Looped peptides [2]: 0.8
Binding of Control serum Blood-bank to linear peptides [2]: 0.6
Binding of Control serum LUMC to linear peptides [2]: 0.4
Binding of Control serum LUMC to looped peptides [2]: 0.6
Binding of a rabbit serum to linear peptides [3]: 0.1
Binding of a rabbit serum to looped peptides [3]: 0.6

TFRIAIWNLDVIISS
Binding of serum 1a to linear peptides of protein X3 of SARS-CoV Urbani [1]: 0.8
Binding of serum 1a to looped/cyclic peptides of protein X3 of SARS-CoV Urbani [1]: 0.7
Binding of serum 1b to linear peptides of protein X3 of SARS-CoV Urbani [1]: 0.5
Binding of serum 1b to looped/cyclic peptides of protein X3 of SARS-CoV Urbani [1]: 0.5
Binding of serum 2 to linear peptides of protein X3 of SARS-CoV Urbani [1]: 0.6
Binding of serum 2 to looped/cyclic peptides of protein X3 of SARS-CoV Urbani [1]: 0.6
Binding of serum 6 to linear peptides of protein X3 of SARS-CoV Urbani [1]: 0.5
Binding of serum 6 to looped/cyclic peptides of protein X3 of SARS-CoV Urbani [1]: 0.3
Binding of serum 37 to linear peptides of protein X3 of SARS-CoV Urbani [1]: 0.6
Binding of serum 37 to looped/cyclic peptides of protein X3 of SARS-CoV Urbani [1]: 0.6
Binding of serum 62 to linear peptides of protein X3 of SARS-CoV Urbani [1]: 0.7
Binding of serum 62 to looped/cyclic peptides of protein X3 of SARS-CoV Urbani [1]: 0.7
Binding of serum London to linear peptides of protein X3 of SARS-CoV Urbani [1]: 0.7
Binding of serum London to looped/cyclic peptides of protein X3 of SARS-CoV Urbani [1]: 0.2
Binding of serum SARS-green to linear peptides of protein X3 of SARS-CoV Urbani [1]: 0.4
Binding of serum SARS-green to looped/cyclic peptides of protein X3 of SARS-CoV Urbani [1]: 0.2
Binding of serum SARS-yellow to linear peptides of protein X3 of SARS-CoV Urbani [1]: 0.6
Binding of serum SARS-yellow to looped/cyclic peptides of protein X3 of SARS-CoV Urbani [1]: 0.5
Binding of Control Serum Blood-Bank to Looped peptides of the protein X3 of SARS-CoV Urbani [2]: 0.8
Binding of Control serum Blood-bank to linear peptides of the protein X3 of SARS-CoV Urbani [2]: 0.8
Binding of Control serum LUMC to linear peptides of the protein X3 of SARS-CoV Urbani [2]: 0.7
Binding of Control serum LUMC to looped peptides of the protein X3 of SARS-CoV Urbani [2]: 0.6
Rabbit serum linear peptides [3]: 0.3
Rabbit serum looped peptides [3]: 0.4

THFAFACADGTRHTY
Binding of serum 1a to linear peptides of protein X4 of SARS-CoV Urbani [1]: 0.7
Binding of serum 1a to looped/cyclic peptides of protein X4 of SARS-CoV Urbani [1]: 0.7
Binding of serum 1b to linear peptides of protein X4 of SARS-CoV Urbani [1]: 0.5
Binding of serum 1b to looped/cyclic peptides of protein X4 of SARS-CoV Urbani [1]: 0.5
Binding of serum 2 to linear peptides of protein X4 of SARS-CoV Urbani [1]: 0.5
Binding of serum 2 to looped/cyclic peptides of protein X4 of SARS-CoV Urbani [1]: 0.5
Binding of serum 6 to linear peptides of protein X4 of SARS-CoV Urbani [1]: 0.6
Binding of serum 6 to looped/cyclic peptides of protein X4 of SARS-CoV Urbani [1]: 0.5
Binding of serum 37 to linear peptides of protein X4 of SARS-CoV Urbani [1]: 0.6
Binding of serum 37 to looped/cyclic peptides of protein X4 of SARS-CoV Urbani [1]: 0.6
Binding of serum 62 to linear peptides of protein X4 of SARS-CoV Urbani [1]: 0.7
Binding of serum 62 to looped/cyclic peptides of protein X4 of SARS-CoV Urbani [1]: 0.6
Binding of serum London to linear peptides of protein X4 of SARS-CoV Urbani [1]: 0.7
Binding of serum London to looped/cyclic peptides of protein X4 of SARS-CoV Urbani [1]: 0.3
Binding of serum SARS-green to linear peptides of protein X4 of SARS-CoV Urbani [1]: 0.5
Binding of serum SARS-green to looped/cyclic peptides of protein X4 of SARS-CoV Urbani [1]: 0.4
Binding of serum SARS-yellow to linear peptides of protein X4 of SARS-CoV Urbani [1]: 0.2
Binding of serum SARS-yellow to looped/cyclic peptides of protein X4 of SARS-CoV Urbani [1]: 0.5
Binding of Control Serum Blood-Bank to Looped peptides [2]: 0.7
Binding of Control serum Blood-bank to linear peptides [2]: 0.7
Binding of Control serum LUMC to linear peptides [2]: 0.7
Binding of Control serum LUMC to looped peptides [2]: 0.7
Rabbit serum linear peptides [3]: 0.4
Rabbit serum looped peptides [3]: 0.5
